For one experiment, the system named is HEK 293 cell line. The experiment in a line: In vitro cytotoxicity, WST-1. It is filed as cell-based. As to conditions: Homo sapiens, HEK293, 10% FBS, read-out: IC50, single agent. The method, then:
(§1) Cells were maintained in Dulbecco’s modified Eagle’s medium (DMEM) with 10% fetal bovine serum (FBS) and 1% PenStrep (100 U/mL Penicillin and 100 μg/mL Streptomycin) at 37°C with 5% CO2. Cells were serially passaged at ∼80% confluence ∼ every 4 days. Assays were performed in duplicate in 96 well plates seeded with ∼25,000 cells per well. […] Briefly, the antimicrobials were prepared by performing a twofold serial dilution at 100× of tested concentration in DMSO. Subsequently, a 1 μl aliquot of each concentration was transferred to a sterile 96-well plate containing fresh DMEM with either 10% FBS. After mixing four times, the media aliquots with different concentrations of antimicrobial were transferred to each well of the 96-well plate seeded with cells, using wells containing 1–2% DMSO only as control. To determine the effect of FBS on the cytotoxicity of each compound, DMEM with 40% FBS containing different concentrations of antimicrobial was prepared as described above. After 24 h of exposure, WST-1 reagent (Cell Proliferation Assay reagent, Roche) at a concentration of 10% was added to each well. Absorbance at A450 nm on a Multiskan Ascent 354 Spectrophotometer (Labsystems) was measured after 1 h of incubation. The IC50 value was determined for each compound against each cell line via non-linear regression (three parameters) using GraphPad Prism v6 software.
For orientation: Tetrazolium dyes change colour on reduction, which living cells bring about.

In the next experiment the test system is MDCK cell line. Briefly: In vitro cytotoxicity, WST-1. It is filed as cell-based, canine. As to conditions: Canis lupus familiaris, 10% FBS, read-out: IC50, single agent. The method, then: as §1
The subject of experiment [1] is all the cell lines tested (HaCaT, HEK 293, MDCK). The experiment in a line: cells. The method, then: as §1
Experiment [2] concerns 10 A. calcoaceticus isolated from human clinical cases. The experiment in a line: MIC/MBC, human clinical Acinetobacter isolates. It is filed as cell-based. Conditions: 10 A. calcoaceticus human clinical isolates. The source says:
(§2) Escherichia coli ATCC 25922, E. coli ATCC 11229, P. aeruginosa ATCC 27853, P. aeruginosa PA01, Pseudomonas putida ATCC 17428, P. mirabilis ATCC 43071, K. pneumoniae ATCC 13883, A. baumannii ATCC 19606, and A. baumannii ATCC 12457 were used for preliminary susceptibility testing and combination experiments. S. aureus ATCC 29213 and S. pneumoniae ATCC 49619 were used as internal quality controls. A variety of bacterial organisms from both human and canine infections were investigated in this study (n = 119 isolates in total). Twenty-eight clinical Acinetobacter spp. isolates were obtained from cases of human skin and soft tissue infections, including 18 Acinetobacter baumannii and 10 A. calcoaceticus, kindly provided by a person (Institute of Medical and Veterinary Science, South Australia). […] Ninety-one clinical isolates were obtained from cases of canine otitis externa, including seven methicillin-susceptible S. pseudintermedius (MSSP), 13 multidrug- and methicillin-resistant S. pseudintermedius (MRSP) ([Saputra et al., 2017]), 20 beta-haemolytic Streptococcus spp., 30 P. aeruginosa (10 of them resistant to gentamicin and 21 P. mirabilis isolates). These isolates were obtained from the bacterial collection of the national survey of antimicrobial resistance in animals conducted in Australia. Swab samples from dogs with signs of otitis externa were collected by veterinarians and submitted to government, private or university diagnostic laboratories throughout Australia. After routine bacterial identification and the removal of confidential information, the participating veterinary diagnostic laboratories submitted the bacteria and their clinical information to PC2 Laboratories, Australian Centre for Antimicrobial Resistance Ecology, School of Animal and Veterinary Sciences, University of Adelaide, Roseworthy Campus, Roseworthy, SA, Australia, for further study. Thus, animal ethics approval was not required in this study. These organisms were identified to species level using biochemical testing and MALDI-TOF mass spectrometry (Bruker, Preston, VIC, Australia).
(§3) The MIC for ampicillin or gentamicin against each isolate was determined for each test to serve as an internal quality control. The MICs of isolates were determined by visual reading and using an EnSpire Multimode Plate Reader 2300 atA600nm.
(§4) Briefly, 10 μl aliquots from each duplicate well from the MIC assays (starting from the MIC for each compound) were inoculated onto a sheep blood agar (SBA) plate and incubated at 37°C.

Experiment [3] has as its system 18 A. baumannii isolated from human clinical cases. Briefly: MIC/MBC, human clinical Acinetobacter isolates. In kind it is cell-based. Conditions: 18 A. baumannii human clinical isolates.
Description: as §2, §3, §4

Experiment [4] deals with Gram-negative control strains. Briefly: Checkerboard, summary over Gram-negative strains. It is filed as cell-based. The method, then: Briefly, antimicrobial stock solutions for robenidine and PMBN were prepared at a concentration of 12.8 mg/ml in DMSO. […] A 1 μl aliquot of the first compound from each combination was dispensed along the abscissa (from row A to G) of the 96-well microplate, while the second compound was dispensed along the ordinate (from column 12 to column 3) using an electronic multichannel pipette followed by 89 μl of LB broth. Each well of the plate was inoculated with an aliquot of 10 μl bacterial suspension at a concentration of 1-5 × 10^6 colony forming units (CFU) per ml. Subsequently, the plate was incubated at 37°C for 24 h. The fractional inhibitory concentration index (FICI) described the results of the combinations, and was calculated utilizing the following formula:
DRI = MIC of drug alone/MIC of drug in combination

The next experiment has as its system S. pneumoniae strains. The arrangement: method as in Abraham et al., 2016; Ogunniyi et al., 2017. As to conditions: ref Abraham et al., 2016, Ogunniyi et al., 2017; cited from earlier work.
On the set-up of experiment [5]: method as in Abraham et al., 2016. As to conditions: ref Abraham et al., 2016, cited from earlier work.

This is an account of results in article PMC6494957 (Frontiers in Microbiology, 2019).

As a reminder, the IC50 is the concentration needed to halve the response being measured. For orientation: MIC means the smallest concentration in the dilution series that meets the test's criterion for growth inhibition.

Where two headings read alike, the source gives them in different places.

On to `O=C(O)CN(CCN(CC(=O)O)CC(=O)O)CC(=O)O` [EDTA, ethylenediaminetetraacetic acid], for which the IC50 (with HEK 293 cell line; in the experiment on MDCK cell line; in experiment [1]) was 3.4 mM each time.

Turning to `N=C(N/N=C/c1ccc(Cl)cc1)N/N=C/c1ccc(Cl)cc1` [ROB, robenidine], the MIC range in experiment [2] is 1 to 8 µg/mL; in experiment [3], 8 to 64 µg/mL. For the same compound, the MIC is 2 µg/mL in experiment [2] (Acinetobacter calcoaceticus); 8 µg/mL in experiment [3] (Acinetobacter baumannii); 0.5 to 8 µg/mL in experiment [4] (in the presence of PMBN, Gram-negative pathogens, read-out: MIC of robenidine). In addition, the “lowest robenidine concentration inhibiting growth” value in experiment [4] (in combination with PMBN, Gram-negative ATCC strains of ESKAPE pathogens) was no less than 0.125 µg/mL. Also, the DRIs of robenidine in experiment [4] (in the presence of EDTA, Gram-negative control strains (Table 1)) is 2- to 256 fold; in experiment [4] (in the presence of PMBN, Gram-negative control strains (Table 2)), 8- to 256 fold; in experiment [4] (in the presence of both EDTA and PMBN, all tested isolates (abstract)), 2- to 2048 fold. Besides, the “fold increase in susceptibility” value in experiment [4] (robenidine in combination with PMBN, Gram-negative ATCC strains of ESKAPE pathogens) was 4- to 256 fold. In addition, the “effective concentrations (MIC range)” value in the experiment with S. pneumoniae strains is 2 to 8 µg/mL. In addition, the “serum impact on MIC values” in experiment [5] (10% serum) is reported as “fourfold increase”; in experiment [5] (50% serum) it was “no antimicrobial activity”.
